In PMC6810216, “Human-to-Human Transmission of Influenza A(H3N2) Virus with Reduced Susceptibility to Baloxavir, Japan, February 2019” (Emerging Infectious Diseases, 2019):

What was measured:
[1] = system: A/Kanagawa/IC18141/2019, influenza A(H3N2) virus carrying polymerase acidic I38T substitution; type: cell-based
[2] = system: mutant influenza A(H3N2) viruses encoding the polymerase acidic I38T substitution; conditions: human, in vivo
[3] = target: neuraminidase (NA) of A/Kanagawa/IC18141/2019 (Influenza A virus (H3N2), UniProt A0A193ACB1); type: biochemical

Row | Structure (SMILES) | IC50 [1] [nM] | fold higher IC50 value compared with the median IC50 of A(H3N2) viruses of the 2018–19 season [1] [fold] | time to fever resolution after administration [2] | IC50 [3] [nM] | NA inhibitor susceptibility by WHO criteria (fold change in IC50 vs median of same-season isolates) [3]
1 | O=C1c2c(O)c(=O)ccn2N([C@@H]2c3ccccc3SCc3c2ccc(F)c3F)[C@@H]2COCCN12 [Baloxavir, baloxavir acid] | 236 | 186 | within a half day |  | 
2 | CCC(CC)[C@H](NC(C)=O)[C@@H]1[C@H](O)[C@@H](C(=O)O)C[C@H]1N=C(N)N [Peramivir, peramivir] |  |  |  | 0.18 | 0.18 (NI) (key: NI: normal (<10-fold increase); reduced (10–100-fold increase); highly reduced (>100-fold increase))
